Calls of active or inactive are those of the source. The rule behind the calls is not given here.
Each compound was assayed against Trace amine-associated receptor 1 (Homo sapiens) (UniProt Q96RJ0) (assay: TAAR1 antagonists in human receptor cells, late-stage follow-up, cell-based, fluorescence (AID 743234)). Details: TAAR1-expressing cells, fluorescence antagonist readout.
Sequence of Trace amine-associated receptor 1 (Homo sapiens) (Q96RJ0 whole entry, looked up, the tested form may be a part): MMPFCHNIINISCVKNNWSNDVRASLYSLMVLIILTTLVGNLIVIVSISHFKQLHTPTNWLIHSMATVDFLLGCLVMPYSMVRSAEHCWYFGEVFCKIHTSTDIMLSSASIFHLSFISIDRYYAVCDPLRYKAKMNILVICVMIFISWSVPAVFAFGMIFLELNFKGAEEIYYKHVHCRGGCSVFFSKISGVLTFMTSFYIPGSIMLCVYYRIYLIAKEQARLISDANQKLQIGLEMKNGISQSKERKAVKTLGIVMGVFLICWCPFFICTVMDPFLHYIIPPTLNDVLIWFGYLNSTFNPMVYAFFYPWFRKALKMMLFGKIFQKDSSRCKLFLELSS

SMILES | IC50
Cc1cccc(C(C#N)c2nc3ccccc3nc2C(F)(F)F)c1 (stereo not given) | 1730 nM
COc1cccc(-c2nn(-c3ccccc3)cc2C(=O)Nc2nccs2)c1 | inactive

The remaining lines, values ahead:

IC50 | SMILES
1600 nM | Cc1ccc(CSCC(=O)Nc2cc(S(=O)(=O)N3CCOCC3)ccc2OCC(F)(F)F)cc1
inactive | O=C(NCCn1cc(SCc2ccccc2F)c2ccccc21)c1c(F)cccc1F
> 29900 nM (inactive) | COc1cc(NC(=O)c2cc3ccccc3o2)c(OC)cc1Cl
